# The supplement of paper PMC6045584
# ± gives the standard deviation of the averaged measurements.
# Key:
# [1] = compound: COc1cc2nccc(Oc3ccc(NC(=O)C4(C(=O)Nc5ccc(F)cc5)CC4)cc3)c2cc1OC [CABOZANTINIB]; assay: surviving fraction relative to DMSO-only wells; higher = less growth inhibition; conditions: exposure time: 5 days
# Method in brief: (§1)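 Log-phase tumour cell lines, 250–500 cells per well in 384-well plates, received inhibitors at 0.5, 1, 5, 10, 50, 100, 500 and 1000 nM continuously for five days, starting 24 hours after seeding. Viability was quantified with CellTiter-Glo luminescence and normalised to the median of DMSO-only wells to give surviving fraction. Three screens were run per line, and a line stayed in only with replicate Pearson r >0.7 and median Z' >0.3.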
# [2] = compound: C=CCn1c(=O)c2cnc(Nc3ccc(N4CCN(C)CC4)cc3)nc2n1-c1cccc(C(C)(C)O)n1 [MK-1775]; assay: as above; conditions: exposure time: 5 days
# Method in brief: as §1
Test System,surviving fraction ([1]; 0.5 nM),surviving fraction ([1]; 1 nM),surviving fraction ([1]; 5 nM),surviving fraction ([1]; 10 nM),surviving fraction ([1]; 50 nM),surviving fraction ([1]; 100 nM),surviving fraction ([1]; 500 nM),surviving fraction ([1]; 1000 nM),surviving fraction ([2]; 0.5 nM),surviving fraction ([2]; 1 nM),surviving fraction ([2]; 5 nM),surviving fraction ([2]; 10 nM),surviving fraction ([2]; 50 nM),surviving fraction ([2]; 100 nM),surviving fraction ([2]; 500 nM),surviving fraction ([2]; 1000 nM)
G292 BONE,0.911 ± 0.047,0.977 ± 0.012,1.02 ± 0.078,1.02 ± 0.046,0.925 ± 0.04,0.876 ± 0.021,0.76 ± 0.035,0.722 ± 0.024,0.974 ± 0.034,0.946 ± 0.011,0.997 ± 0.018,1.03 ± 0.02,0.961 ± 0.032,0.821 ± 0.021,0.289 ± 0.014,0.216 ± 0.0088
HCC38 BREAST,1.07 ± 0.1,1.14 ± 0.12,1.38 ± 0.22,1.34 ± 0.23,1.13 ± 0.074,1.24 ± 0.067,1.22 ± 0.1,1.34 ± 0.15,1.33 ± 0.27,1.23 ± 0.048,1.33 ± 0.15,1.16 ± 0.072,0.773 ± 0.24,0.491 ± 0.065,0.0837 ± 0.006,0.069 ± 0.013
HCC70 BREAST,0.985 ± 0.1,1.03 ± 0.048,1.07 ± 0.11,1.09 ± 0.065,1.04 ± 0.14,1.12 ± 0.045,1.09 ± 0.091,0.99 ± 0.051,1.03 ± 0.065,1.02 ± 0.067,1.09 ± 0.033,1 ± 0.11,0.815 ± 0.062,0.281 ± 0.021,0.073 ± 0.0076,0.0593 ± 0.012
HMLE3 BREAST,0.925 ± 0.14,0.91 ± 0.032,0.98 ± 0.023,0.942 ± 0.08,0.992 ± 0.07,0.91 ± 0.064,0.72 ± 0.049,0.656 ± 0.0044,0.955 ± 0.013,0.985 ± 0.066,1.04 ± 0.071,0.999 ± 0.02,0.992 ± 0.065,0.888 ± 0.061,0.448 ± 0.058,0.168 ± 0.026
HMT3552 BREAST,1.12 ± 0.044,1.04 ± 0.012,1.02 ± 0.021,1.03 ± 0.051,1.21 ± 0.067,1.09 ± 0.085,1.01 ± 0.061,0.988 ± 0.057,1.05,1.02,0.977,1.01,0.542,0.142,0.069,0.072
HS57T BREAST,0.884 ± 0.062,0.87 ± 0.07,0.961 ± 0.024,0.983 ± 0.04,1.01 ± 0.037,0.972 ± 0.078,0.894 ± 0.066,0.888 ± 0.034,0.969 ± 0.04,1.04 ± 0.017,1.06 ± 0.06,0.963 ± 0.029,0.597 ± 0.018,0.336 ± 0.041,0.134 ± 0.0042,0.098 ± 0.011
HS578T BREAST,0.931 ± 0.14,0.97 ± 0.1,0.786 ± 0.087,1.12 ± 0.087,1.04 ± 0.08,1.2 ± 0.049,1.06 ± 0.075,0.998 ± 0.099,0.828 ± 0.085,0.84 ± 0.11,0.872 ± 0.087,0.782 ± 0.1,0.559 ± 0.091,0.354 ± 0.035,0.204 ± 0.0082,0.128 ± 0.0087
